The record followed here is the SangsterLogP compilation.

As usually defined, the logP is the decadic logarithm of the partition coefficient of the neutral form, usually between octanol and water. Broadly, the logD is the decadic logarithm of the distribution of all forms, ionised or not, between an organic phase and buffer at a given pH. Low readings indicate lower lipophilicity, high ones higher lipophilicity.

The first data set in a line: method code SF, from Hansch, C. & Leo, A. (1987). Log P database [Dataset]. Pomona College Medicinal Chemistry Project.
Details: not given
The compound `Brc1ccccn1` had a logP of 1.42.

In turn, `Cn1ccc(=O)cc1` came in with a logP of -1.22.

In turn, `O=C(O)COc1ccccc1-c1ccccc1` had a lipophilicity (logP) of 2.83.

Consider `O=C1C=CC(=NCl)C=C1`, for which the logP came out at 1.26.

With `O=Nc1ccc(O)c2ccccc12`, the log partition coefficient (logP) was 2.27.

`CCOc1cn[nH]c1` showed a logP of 0.8.

`CC1=Nc2ccc(F)cc2S(=O)(=O)N1` returned a logP of 0.62.

As to `CCCOc1cccc(C=C(C(=O)OCC)C(=O)OCC)c1`, the logP was 4.

Compound `FC(F)Oc1ccccc1` yielded a logP of 2.41.

`COc1ccc2ncccc2c1` yielded a logP of 2.2.

`NC(=O)c1cccc([N+](=O)[O-])c1` showed a logP of 0.77.

The compound `Cc1ccc2cccnc2c1` came in with a logP of 2.47.

`CC(=O)Oc1ccccc1I` yielded a lipophilicity (logP) of 2.55.

`NC(=O)c1ncn2c(=O)n(CCCl)nnc12`: the lipophilicity (logP) is -0.47.

Compound `O=C(c1ccncc1)c1ccc([N+](=O)[O-])cc1` yielded a logP of 1.76.

For the compound `O=C(Nc1ccc(Cl)c(Cl)c1)C1CCCCC1`, the logP came out at 4.72.

`c1ccc2c(c1)OCO2` returned a logP of 2.08.

Consider `Nc1cc(OCC(=O)O)ccc1Cl`, for which the logP was found to be 1.16.

For `O=C(CNC(=O)c1ccccc1)Oc1cccc([N+](=O)[O-])c1`, the logP came out at 2.46.

`CCOCC1CNc2nc(N)[nH]c(=O)c2N1` (centres undefined) registered a logP of -0.68.

Compound `CC(C)C1OC(=O)c2ccccc21` (centres undefined) had a logP of 2.1.

In the case of `CC(=O)N[C@@H]1CC(=O)N(c2ccccc2)C1=O`, the logP was -0.33.

The compound `COc1ccc2[nH]c(CCCc3nc4cc(OC)ccc4[nH]3)nc2c1` had a logP of 1.75.

Consider `O=CN(Cc1ccccc1)c1ccccc1`, for which the logP came out at 2.62.

As to `CN(C)C(=O)Oc1ccccc1[N+](=O)[O-]`, the logP came to 1.35.

Compound `CCC(CC)C1=Nc2ccccc2S(=O)(=O)N1` yielded a logP of 1.88.

`CCC(C)NC(=O)/C(Cl)=C\c1ccccc1` (centres undefined) came in with a log partition coefficient (logP) of 3.52.

In turn, `CCN(CC)C(C)CN1c2ccccc2Sc2ccccc21` (centres undefined) had a logP of 4.77.

With `Nc1ccc2ccccc2c1S(=O)(=O)O`, the logP was -1.16.

`c1ccc2c(c1)CCc1ccccc1NC2` had a logP of 2.82.

For `S=C(Nc1ccccc1)c1ccccc1`, the logP turned out to be 3.03.

`NN=C(c1ccccc1)c1ccccc1` returned a logP of 2.79.

Turning to `O=C(CCl)Nc1ccccc1`, the logP was determined as 1.63.

The compound `CC(=NO)c1ccsc1` came in with a log partition coefficient (logP) of 1.81.

For `OCCCC(F)(F)F`, the logP turned out to be 0.9.

The compound `CCOC(=O)c1ccccn1` registered a logP of 0.88.

Consider `O=C(COc1ccccc1)Nc1ccccc1`, for which the logP is 2.73.

Turning to `O=C1CCN(c2ccccc2)N1`, the logP was 0.89.

For `Cc1csc(N=C(N)N)n1`, the logP is 1.24.

`CCCCC[N+](=O)[O-]` had a logP of 2.01.

Compound `Cc1ccc2[nH]c(=O)[nH]c(=O)c2c1` displayed a logP of 0.55.

`CC(=O)c1ccc2ccccn12` returned a logP of 2.06.

The compound `O=C(Nc1ccccc1)C(F)(F)F` displayed a logP of 2.21.

Take `CC(C)c1ccccc1O`: the lipophilicity (logP) came out at 2.88.

`Cc1cccc(OC(=O)CNC(=O)c2ccccc2)c1` yielded a logP of 2.72.

For `C(=C\c1ccccn1)/c1ccccn1`, the lipophilicity (logP) worked out at 2.11.

As for `OC[C@@H]1C[C@H]1c1ccccc1`, the logP amounted to 1.95.

For the compound `Nc1ccc(C2CCCCC2)cc1`, the logP amounted to 3.65.

`COC(=O)C(C)Oc1ccc(Oc2ccc(Cl)cc2Cl)cc1` (centres undefined) yielded a logP of 4.8.

Regarding `O=C(CNC(=O)c1ccccc1)Oc1ccccc1`, the logP came to 2.31.

In the case of `CN(C)C(=O)Cc1ccco1`, the logP was 0.01.

With `O=C(CCl)Nc1ccc(Cl)c(Cl)c1`, the log partition coefficient (logP) turned out to be 3.29.

The compound `O=S1(=O)NC(C2CCC2)=Nc2ccc(Cl)cc21` gave a lipophilicity (logP) of 2.24.

With `CC(=O)c1ccccc1Cl`, the logP was found to be 2.09.

The compound `CCC(C)NC(=O)C(=Cc1ccccc1)c1ccccc1` (centres undefined) returned a logP of 4.05.

As for `O=C(/C=C/c1ccccc1)N1CCCCC1`, the logP came out at 2.74.

On to `O=S1(=O)NC(C2CC3C=CC2C3)=Nc2ccccc21` (centres undefined), for which the logP came to 2.06.

`ClC(Cl)=Nc1ccccc1` had a lipophilicity (logP) of 2.54.

In turn, `CCC(=Cc1ccccc1)[N+](=O)[O-]` registered a logP of 2.86.

Compound `O=S1(=O)NC(c2ccco2)=Nc2ccccc21` displayed a logP of 1.06.

The compound `c1ccc(CSc2cnn[nH]2)cc1` came in with a logP of 2.65.

The compound `CSc1cccc(/N=N/N(C)C)c1` had a logP of 2.98.

In turn, `N#CN=[N+]([O-])c1ccc(C(F)(F)F)cc1` had a lipophilicity (logP) of 2.47.

Turning to `CCOC(=O)CCc1ccccc1`, the logP came out at 2.73.

`O=C(CO)NCc1ccccc1` showed a logP of 0.55.

The compound `OC/C=C/c1ccccc1` returned a logP of 1.95.

Consider `O=c1[nH]cc(CO)c(=O)[nH]1`, for which the logP was -1.94.

Compound `CCOC(C)OCC` gave a logP of 1.49.

Regarding `O=C(N[C@H](CO)[C@H](O)c1ccc(-c2ccccn2)cc1)C(F)(F)F`, the logP amounted to 1.31.

In the case of `CCCCCCCCN(CCCCCCCC)N=Cc1c2c(O)c3c(O)c(C)c4c(c3c1O)C(=O)C(C)(O/C=C\C(OC)C(C)C(OC(C)=O)C(C)C(O)C(C)C(O)C(C)/C=C\C=C(\C)C(=O)N2)O4` (centres undefined), the logP stood at 3.6.

`COc1ccc(OC(=O)CNC(=O)c2ccccc2)cc1` had a logP of 2.28.

For the compound `O=C(O)c1cc(=O)c2c(OCC(O)COc3cccc4oc(C(=O)O)cc(=O)c34)cccc2o1`, the logP amounted to 1.92.

In turn, `CC(=O)Oc1ccccc1C` returned a logP of 1.93.

Regarding `O=C(O)CCS`, the logP was 0.43.

On to `CSSC`, for which the logP came to 1.77.

`CCOC(=O)/C(=C/c1c(Cl)cccc1Cl)C(C)=O` yielded a logP of 2.86.

Turning to `CC(C)Cl`, the logP is 1.9.

In turn, `Cc1c(C2(c3cc(C(C)C)c(O)c(Br)c3C)OS(=O)(=O)c3ccccc32)cc(C(C)C)c(O)c1Br` registered a logP of 2.78.

As to `O=[N+]([O-])c1ccc2cccnc2c1`, the logP is 1.82.

For the compound `CN(C)CCc1ccsc1`, the logP amounted to 1.94.

Turning to `CC(=O)c1ccc([C@@H](O)[C@@H](CO)NC(=O)C(Cl)Cl)cc1`, the logP was 0.57.

For the compound `Clc1ccc2ncccc2c1`, the logP was found to be 2.73.

As to `O=C(O)C(Cl)(Cl)Cl`, the lipophilicity (logP) was 1.33.

Regarding `CC(=O)Nc1cccc(NC(C)=O)c1`, the logP came to 0.5.

Consider `NNc1ncnc2c([C@@H]3O[C@H](CO)[C@@H](O)[C@H]3O)n[nH]c12`, for which the logP is -1.42.

On to `O=C(O)CSCc1ccccc1`, for which the logP stood at 2.1.

In turn, `CC(=O)Oc1ccccc1[N+](=O)[O-]` gave a logP of 1.55.

The compound `Cc1ccccc1C(O)c1ccccc1` (centres undefined) came in with a logP of 3.06.

The compound `COc1cc(C=O)ccc1OCCOC(=O)c1ccc(Cl)cc1` showed a logP of 3.71.

Turning to `COc1ccc(C(=O)N(C)C)cc1`, the lipophilicity (logP) worked out at 0.96.

The compound `CCNc1nc(NC(C)C)nc(SC)n1` returned a logP of 2.98.

For `O=[N+]([O-])c1ccc(C=Cc2nccs2)o1`, the logP was determined as 1.97.

The compound `OCc1cccc(C(F)(F)F)c1` displayed a logP of 2.24.

Turning to `Cc1nnc(C)s1`, the logP is 0.03.

Regarding `N#CCc1cccs1`, the logP was 1.26.

Compound `C1=CCOC1` returned a logP of 0.46.

The compound `COC(=O)CCC(=O)N(C)c1ccc(S(=O)(=O)N(C)C)cc1` gave a logP of 0.43.

Compound `N#CN/C(N)=N/c1ccccc1` registered a logP of 1.05.

For `N#CN=[N+]([O-])c1cccc(C(F)(F)F)c1`, the logP was determined as 2.52.

Regarding `COc1cn[nH]c1`, the logP is 0.37.

On to `CCc1cccs1`, for which the logP stood at 2.87.

In turn, `CCNC(=O)CBr` came in with a logP of 0.34.

Compound `NC(=O)Nc1cnc2ccccc2n1` gave a logP of 1.3.

Turning to `N#CN=[N+]([O-])c1ccccc1`, the lipophilicity (logP) was 1.87.

`N#Cc1ccco1` had a logP of 0.96.

The compound `COc1ccc([N+]([O-])=NC#N)cc1` showed a logP of 2.15.

For `NNC(=O)c1ccncc1`, the logP is -0.5.

As for `Nc1ccc(OC(=O)CNC(=O)c2ccccc2)cc1`, the log partition coefficient (logP) came to 1.01.

With `C=CC(N)=O`, the logP is -0.67.

With `CCOP(=O)(OCC)Oc1ccc(SC)cc1C`, the logP was 3.21.

In turn, `CC(=O)CF` came in with a logP of -0.39.

In turn, `NC(=O)c1cccc(Br)c1` displayed a logP of 1.65.

With `Cc1ccc(C=C(C#N)C#N)cc1`, the log partition coefficient (logP) is 2.4.

`O=[N+]([O-])c1ccc(C=Cc2nc[nH]n2)o1` had a logP of 1.1.

`CCCCCCC1CCC(=O)O1` (centres undefined): the logP stood at 2.72.

In the case of `OC(CF)CF`, the logP is -0.36.

For the compound `CC(=O)Nc1ccc(F)cc1`, the logP was 1.43.

Consider `CCCCC(=O)Nc1ccc(Cl)c(Cl)c1`, for which the lipophilicity (logP) was found to be 4.17.

Take `Nc1ncco1`: the logP was -0.18.

Staying with this data set, now noted: pH 2.0.
In turn, `Cn1cc(C(=O)O)c2ccccc21` had a logD of 1.76.

The same data set, now with this note: pH 3.0.
The compound `CSCC1=C(C(=O)O)N2C(=O)C(NC(=O)Cc3cccs3)C2SC1` (centres undefined) returned a logD of 1.01.

As for `CC(=O)OCC1=C(C(=O)O)N2C(=O)C(NC(=O)Cc3ccccc3)C2SC1` (centres undefined), the logD turned out to be 0.2.

The data set is the same for the next values; noted with them: pH 6.8.
Compound `COC1(NC(=O)CSC(F)F)C(=O)N2C(C(=O)OCC(=O)C(C)(C)C)=C(CSC3(C)N=NN=N3)CSC21` (centres undefined) had a logD of 2.31.

Still in this data set, the particulars now being: pH 7.0.
The compound `CS(=O)(=O)c1cccc([N+](=O)[O-])c1` yielded a logD of 0.5.

Turning to `CCOC(=O)c1ccc([N+](=O)[O-])cc1`, the logD was found to be 2.33.

For the compound `COc1ccc(C=O)cc1`, the logD was 1.61.

Consider `CC(=O)Oc1ccc(C(N)=O)cc1`, for which the logD was found to be 0.27.

The same data set, now with this note: pH 7.4.
`O=c1[nH]c(=O)n(C2CCCO2)cc1F` (centres undefined) showed a pH-dependent lipophilicity (logD) of -0.27.

The compound `CCn1c(=O)c(N(C)C)c(C)n(-c2ccccc2)c1=O` registered a logD of 2.29.

On to `Cc1c(N2CCCC2)c(=O)n(-c2ccccc2)c(=O)n1C`, for which the log distribution coefficient (logD) came to 2.26.

Staying with this data set, now noted: pH 9.2.
In the case of `CC(C)C#CN(C)C(C)C`, the logD came to 2.29.

The same data set, now with this note: pH 13.0.
Compound `CC1(C)N=C(N)N=C(N)N1c1ccc(N)cc1` registered a logD of -0.59.

As to `CC1(C)N=C(N)N=C(N)N1c1cccc(COc2cccc(NC(N)=O)c2)c1`, the logD worked out at 0.9.

Consider `CNC1(c2ccccc2Cl)CCCCC1=O` (centres undefined), for which the logD was 2.18.
